Measured values taken from patent US3966824A, “P,P'-Disubstituted α-trichloromethylbenzylphenyl ethers” (University of Illinois Foundation, priority 1974, dated 1976).
“Also recorded” adds a separate entry of the source.

Legend:
Phormia regina = assay: Topical toxicity to Phormia regina, alone and with piperonyl butoxide; type: in vivo; settings: for SR (synergistic ratio), Phormia regina: LD50 alone / LD50 synergized with piperonyl butoxide; for LD50: Phormia regina, alone; for LD50 / Topical LD50, Phormia regina, pb: topical; for toxicity to Phormia: in vivo; for Topical LD50, Phormia regina, pb: synergized with piperonyl butoxide (pb)
Experimental: (§1) The compounds of the present invention were tested for insecticidal activity by standard methods, and compared with the insecticidal activities of DDT and symmetrical analogs of DDT, such as methoxychlor. Toxicological methods for the determination of the topical LD50 values to adult female SNAIDM and PSR houseflies, Musca domestica L. and to Phormia regina, and LC50 values to clex pipiens quinquefas ciatus Say, and Anopheles albimanus Weid mosquitoes were described by Metcalf et al., 44 Bull. World Health Org. 363 (1971). The methods for evaluation of metabolism by mouse liver homogenate and by female RSP housefly and salt-marsh caterpillar larvae Estigmene acrea Drury, were described by Metcalf et al., 5 J. Environ. Sci. Tech. 709 (1971).
(§2) The synergistic ratios or SR values (LD50 alone/ LD50 synergized with piperonyl butoxide) shown in Table II indicate the role of the multifunction oxidase (MFO) in detoxifying the individual compounds. Since piperonyl butoxide serves to block the action of MFO, the synergized LD50 values express the intrinsic toxicity of the compounds. With the detoxifying action of MFO enzymes blocked, the intrinsic toxicity of the compounds can thus be measured.

insects [1] = assay: General insecticidal activity (house flies, blow fly, mosquitoes and other insects); type: in vivo; settings: comparison among the 9 ethers of Table II
Excerpt: (§3) It has been found from metabolic studies on insects, and mice, using a model ecosystem and the methods described in Kapoor, et al., 18(6) J.Agr., Food Chem. 1145 (1970), Metcalf, et al., J. Environ. Sci. Technol. 709 (1971) and also in the copending application of Metcalf et al., "Insecticidal Biodegradable Analogues of DDT", Ser. No. 147,241, filed May 26, 1971, and having a common assignee with the present application, that certain p,p'-disubstituted α-trichloromethylbenzylphenyl ethers with various substituent groups are readily attacked by multifunction oxidase (MFO) enzymes, and thus are substantially biodegradable.
as §1

mosquito larvae = assay: Toxicity to mosquito larvae (general statement); settings: in vivo
Experimental: as §1

Culex fatigans larvae = assay: Toxicity to Culex mosquito larvae; type: in vivo
Experimental: as §1

[2] = test system: Anopheles albimanus larvae; assay: Toxicity to Anopheles albimanus mosquito larvae; type: in vivo
Experimental: as §1

Musca domestica Rsp = assay: Topical toxicity to adult female Rsp (resistant) houseflies, alone and with piperonyl butoxide; type: in vivo, Musca domestica L.; settings: for SR (synergistic ratio), Musca domestica Rsp: LD50 alone / LD50 synergized with piperonyl butoxide; for LD50: Musca domestica, alone; for LD50 / Topical LD50, Musca domestica Rsp, pb: Rsp strain, topical; for Topical LD50, Musca domestica Rsp, pb: synergized with piperonyl butoxide (pb)
Experimental: as §1, §2

Musca domestica SNAIDM = assay: Topical toxicity to adult female SNAIDM (susceptible) houseflies, alone and with piperonyl butoxide; type: in vivo, Musca domestica L.; settings: for SR (synergistic ratio), Musca domestica SNAIDM: LD50 alone / LD50 synergized with piperonyl butoxide; for LD50: Musca domestica, alone; for LD50 / Topical LD50, Musca domestica SNAIDM, pb: SNAIDM strain, topical; for Topical LD50, Musca domestica SNAIDM, pb: synergized with piperonyl butoxide (pb)
Experimental: as §1, §2

[3] = test system: multifunction oxidase (MFO) enzymes; settings: cited from earlier work
insects [4] = settings: relative to DDT where stated; cited from earlier work
[5] = test system: multifunction oxidase (MFO) enzymes; assay: Biodegradability / metabolism by multifunction oxidase (MFO) enzymes (insects, mice, model ecosystem); type: in vitro ADME; settings: inferred from SR values
Excerpt: as §3
as §1, with “709 (1971). […]” for “709 (1971).”

animals = settings: prior art; cited from earlier work
[6] = cited from earlier work

SMILES	SR (synergistic ratio), Phormia regina (Phormia regina)	LD50 (Phormia regina)	Topical LD50, Phormia regina, pb (Phormia regina)	LC50 Culex fatigans larvae (Culex fatigans larvae)	LC50 Anopheles albimanus larvae [2]	SR (synergistic ratio), Musca domestica Rsp (Musca domestica Rsp)	LD50 (Musca domestica Rsp)	Topical LD50, Musca domestica Rsp, pb (Musca domestica Rsp)	SR (synergistic ratio), Musca domestica SNAIDM (Musca domestica SNAIDM)	LD50 (Musca domestica SNAIDM)	Topical LD50, Musca domestica SNAIDM, pb (Musca domestica SNAIDM)	also measured
CCOc1ccc(C(Oc2ccc(Cl)cc2)C(Cl)(Cl)Cl)cc1 (stereo not drawn) [VI, α-trichloromethyl-p-ethoxybenzyl p-chlorophenyl ether]	1.0	31.2 mg/kg	31.2 μg per g	0.067 ppm	0.044 ppm	2.5	31 mg/kg	12.5 μg per g	1.9	18.5 mg/kg	9.5 μg per g	toxicity to Phormia (Phormia regina): only slightly less toxic to Phormia than the p,p'-diethoxy compound IV; intrinsic toxicity / insecticidal effectiveness (insects [1]): highest intrinsic toxicity; also recorded: most effective insecticide generally; toxicity to mosquito larvae (mosquito larvae): only slightly less toxic; housefly LD50 (Musca domestica SNAIDM; comparison among compounds of Table II): lowest LD50 values to the housefly
COc1ccc(C(Oc2ccc(Cl)cc2)C(Cl)(Cl)Cl)cc1 (stereo not shown) [V]	1.8	205 mg/kg	115 μg per g	0.14 ppm	0.038 ppm	1.6	130 mg/kg	82.5 μg per g	6.3	108 mg/kg	17.0 μg per g	–
CCOc1ccc(OC(c2ccc(OCC)cc2)C(Cl)(Cl)Cl)cc1 (stereo not shown) [IV]	1.0	16.5 mg/kg	16.5 μg per g	0.11 ppm	0.07 ppm	1.7	42 mg/kg	24.5 μg per g	2.1	27 mg/kg	13.0 μg per g	toxicity to Phormia (Phormia regina): quite toxic to Phormia; intrinsic toxicity / insecticidal effectiveness (insects [1]): highest intrinsic toxicity
Clc1ccc(C(c2ccc(Cl)cc2)C(Cl)Cl)cc1 [DDD, 1,1-dichloro-2,2-bis(p-chlorophenyl)ethane]	–	–	–	–	–	–	–	–	–	–	–	biodegradability / attack by MFO enzymes of prior art compounds [3]: do not function on DDT and its metabolic derivatives DDE and DDD (or TDE)
CCOc1ccc(C(Oc2ccc(C)cc2)C(Cl)(Cl)Cl)cc1 (stereo not shown) [VIII]	1.5	46.2 mg/kg	30.0 μg per g	0.18 ppm	0.066 ppm	2.9	65 mg/kg	22.0 μg per g	3.5	72.5 mg/kg	20.5 μg per g	–
COc1ccc(C(Oc2ccc(C)cc2)C(Cl)(Cl)Cl)cc1 (stereo not shown) [IX]	–	> 250 mg/kg	> 250 μg per g	0.65 ppm	> 1.0 ppm	> 4	> 500 mg/kg	135 μg per g	> 13	> 500 mg/kg	39.0 μg per g	–
Clc1ccc(OC(c2ccc(Cl)cc2)C(Cl)(Cl)Cl)cc1 (stereo not drawn) [I, α-trichloromethyl-p-chlorobenzyl p-chlorophenyl ether]	–	> 250 mg/kg	> 250 μg per g	0.035 ppm	0.014 ppm	> 3.6	> 500 mg/kg	180 μg per g	1.0	90 mg/kg	90 μg per g	toxicity to mosquito larvae (mosquito larvae): the most toxic
CCOc1ccc(C(Oc2ccc(OC)cc2)C(Cl)(Cl)Cl)cc1 (stereo not shown) [VII]	1.9	30 mg/kg	16.0 μg per g	0.14 ppm	0.034 ppm	6.4	90 mg/kg	14.0 μg per g	9.0	45 mg/kg	5.0 μg per g	toxicity to Phormia (Phormia regina): quite toxic to Phormia; intrinsic toxicity / insecticidal effectiveness (insects [1]): highest intrinsic toxicity
ClC(Cl)=C(c1ccc(Cl)cc1)c1ccc(Cl)cc1 [DDE, 1,1-dichloro-2,2-bis(p-chlorophenyl) ethylene]	–	–	–	–	–	–	–	–	–	–	–	biodegradability / attack by MFO enzymes of prior art compounds [3]: do not function on DDT and its metabolic derivatives DDE and DDD (or TDE)
Cc1ccc(OC(c2ccc(C)cc2)C(Cl)(Cl)Cl)cc1 (stereo not shown) [III]	1.35	135 mg/kg	100 μg per g	0.12 ppm	0.18 ppm	> 3	> 500 mg/kg	145 μg per g	2.9	265 mg/kg	90 μg per g	–
Cc1ccc(C(c2ccc(C)cc2)C(Cl)(Cl)Cl)cc1 [methylchlor, 1,1,1-trichloro-2,2-bis(p-methylphenyl)ethane]	–	–	–	–	–	–	–	–	–	–	–	insecticidal activity of prior art compounds (insects [4]): considerably less insecticidal activity than DDT towards other species of insects
COc1ccc(OC(c2ccc(OC)cc2)C(Cl)(Cl)Cl)cc1 (stereo not drawn) [II, α-trichloromethyl-p-methoxybenzyl p-methoxyphenyl ether]	1.5	125 mg/kg	82.5 μg per g	0.51 ppm	0.10 ppm	> 8.7	> 500 mg/kg	57.5 μg per g	22	300 mg/kg	14.0 μg per g	detoxication in susceptible and resistant houseflies [5]: rapid detoxication
COc1ccc(C(c2ccc(OC)cc2)C(Cl)(Cl)Cl)cc1 [methoxychlor, 1,1,1-trichloro-,2,2-bis(p-methoxyphenyl)ethane]	–	–	–	–	–	–	–	–	–	–	–	accumulation in animal tissues (animals): not generally accumulated in animal tissues; insecticidal activity of prior art compounds (insects [4]): considerably less insecticidal activity than DDT towards other species of insects; biodegradability / attack by MFO enzymes of prior art compounds [3]: readily attacked by MFO enzymes
CSc1ccc(C(c2ccc(SC)cc2)C(Cl)(Cl)Cl)cc1 [methiochlor, 1,1,1-trichloro-2,2-bis-(p-methiophenyl) ethane]	–	–	–	–	–	–	–	–	–	–	–	insecticidal activity of prior art compounds (insects [4]): considerably less insecticidal activity than DDT towards other species of insects; biodegradability / attack by MFO enzymes of prior art compounds [3]: readily attacked by MFO enzymes
Clc1ccc(C(c2ccc(Cl)cc2)C(Cl)(Cl)Cl)cc1 [DDT, 1,1, 1 trichloro-2,2-bis(p-chlorophenyl)ethane]	–	–	–	–	–	–	–	–	–	–	–	lipid solubility [6]: high lipid solubility; water solubility [6]: very low water solubility; accumulation in animal tissues (animals): accumulation in the fatty or lipid tissues of animals
